Test results published in publication PMC10927086, “Effects of structurally distinct human HDAC6 and HDAC6/HDAC8 inhibitors against S. mansoni larval and adult worm stages” (PLOS Neglected Tropical Diseases, 2024).
“And” between values parts separate entries of the source, which are not always exact repeats. Identical values can stand only once. Like-named read-outs stand apart in the source and are kept apart here.

Tests used:
hHDAC1 = settings: recombinant enzyme, previously reported; ref [25]; cited from earlier work
[1] = tested on: adult S. mansoni worm pairs; assay: Viability assay on adult worm pairs (phenotype scoring 0-3); format: cell-based, Schistosoma mansoni; settings: for viability at 20 µM / viability at 50 µM: Schistosoma mansoni
Procedure: For studies on adult worm pairs, mice infected 7–8 weeks previously with double sex cercariae were euthanized with intraperitoneal injections of Tiletamine/Zolazepam ([…]) + Xylazine (100 mg/kg) and adult parasites were harvested by reversed perfusion of the hepatic portal system and mesenteric veins. Adult worms were cultured in DMEM containing phenol red and with 4500 mg/l glucose, 2 mM L-glutamine, 100 U/ml penicillin, 100 μg/ml streptomycin, 1x antibiotic-antimycotic reagent, and 10% heat inactivated FBS. Viability assays on adult worm pairs were based on a phenotyping scoring assessment as previously described. Briefly, five adult pairs were incubated with selected compounds in 3 ml of DMEM complete medium. For each compound, three experiments were performed, and compounds were given to parasites only once without medium addition and/or replacement. DMSO (vehicle)-treated worms were used as control samples. Viability was monitored under a Leica Model MZ12 stereomicroscope for 7 days and viability scores (0–3) were assigned. […] For each sample, the total score was determined by the ratio of the sum of worm scores for the total number of worms.
Fig 3 Schistosome viability assays. Panel A: Representative dose-response curves of the inhibitors on NTS. The y-axis indicates the percentage of viability normalized against DMSO (100%) and gambogic acid 10 μM (0%). […] Panel B: dose-response curve of the inhibitors on adult schistosome worm pairs. DMSO (vehicle) was used as negative control (100% viability), the indicated compounds were assayed at 5 (full triangle) 10 (inverted full triangle), 20 (full square) and 50 μM (full circle). Data are expressed as a % severity score (viability) relative to DMSO. Each point represents the average ± standard deviation of three independent experiments.
Parasites were treated initially at 20 μM and 50 μM; their impact on viability was monitored for 7 days upon treatment. […] Viability of each schistosome was scored from 3 (no effect) to 0 (severe effects) by assigning daily worm phenotype scores (plate attachment, movement, color, gut peristalsis, tegument damage) as previously described (Fig 3B).

[2] = set-up: method as in earlier work; settings: QikProp, ref [25], cited from earlier work
hHDAC6 = settings: recombinant enzyme, previously reported; ref [25]; cited from earlier work
hHDAC8 = settings: recombinant enzyme, previously reported; ref [25]; cited from earlier work
HERG K+ channels = tested on: HERG K+ channels; set-up: method as in earlier work; settings: QikProp, log value; recommended below -5; ref [25]; cited from earlier work

CCN(CC)Cc1ccc(Cn2c(=O)c(OCc3ccc(C(=O)NO)cc3)c(-c3cccnc3)c3ccccc32)cc1 [NF2838]
IC50 (hHDAC1): 300 ± 100 nM
% viability of adult worm pairs relative to DMSO, single experiments ([1]; 20 µM, day 1, 20 µM): 93.3% and 96%
% viability of adult worm pairs relative to DMSO, single experiments ([1]; 20 µM, day 3, 20 µM): 86.6% and 96%
% viability of adult worm pairs relative to DMSO, single experiments ([1]; 20 µM, day 5, 20 µM): 90% and 100%
% viability of adult worm pairs relative to DMSO, single experiments ([1]; 20 µM, day 7, 20 µM): 85% and 100%
% viability of adult worm pairs relative to DMSO, single experiments ([1]; 50 µM, day 1, 50 µM): 62% and 73%
% viability of adult worm pairs relative to DMSO, single experiments ([1]; 50 µM, day 3, 50 µM): 67% and 70%
% viability of adult worm pairs relative to DMSO, single experiments ([1]; 50 µM, day 7, 50 µM): 67%
viability at 20 µM ([1]; 24 h, 20 µM, day 1, read-out: % viability of adult worm pairs relative to DMSO, Mean): 96.4%
viability at 20 µM ([1]; 24 h, 20 µM, day 1, read-out: % viability of adult worm pairs relative to DMSO, single experiments): 100%
viability at 50 µM ([1]; 24 h, 50 µM, day 1, read-out: % viability of adult worm pairs relative to DMSO, Mean): 67.5%
viability at 20 µM ([1]; 72 h, 20 µM, day 3, read-out: % viability of adult worm pairs relative to DMSO, Mean): 94.2%
viability at 20 µM ([1]; 72 h, 20 µM, day 3, read-out: % viability of adult worm pairs relative to DMSO, single experiments): 100%
viability at 50 µM ([1]; 72 h, 50 µM, day 3, read-out: % viability of adult worm pairs relative to DMSO, Mean): 58.5%
viability at 50 µM ([1]; 72 h, 50 µM, day 3, read-out: % viability of adult worm pairs relative to DMSO, single experiments): 50%
viability at 20 µM ([1]; 120 h, 20 µM, day 5, read-out: % viability of adult worm pairs relative to DMSO, Mean): 96.7%
viability at 20 µM ([1]; 120 h, 20 µM, day 5, read-out: % viability of adult worm pairs relative to DMSO, single experiments): 100%
viability at 50 µM ([1]; 120 h, 50 µM, day 5, read-out: % viability of adult worm pairs relative to DMSO, Mean): 50%
viability at 20 µM ([1]; 168 h, 20 µM, day 7, read-out: % viability of adult worm pairs relative to DMSO, Mean): 95%
viability at 20 µM ([1]; 168 h, 20 µM, day 7, read-out: % viability of adult worm pairs relative to DMSO, single experiments): 100%
viability at 50 µM ([1]; 168 h, 50 µM, day 7, read-out: % viability of adult worm pairs relative to DMSO, Mean): 58.5%
viability at 50 µM ([1]; 168 h, 50 µM, day 7, read-out: % viability of adult worm pairs relative to DMSO, single experiments): 50%
%HOA predicted human oral absorption ([2]; 0 to 100% scale, >80% high): 64.57%
QPlogS predicted aqueous solubility ([2]; log value, recommended -6.5-0.5): -4.58 mol/dm^3
SASA predicted total solvent accessible surface ([2]; recommended 300-1000, in Å2 (unit assumed)): 849.77
QPlogP predicted octanol/water partition coefficient ([2]; recommended -2-6.5): 3.29
IC50 (hHDAC6): 11.5 ± 1.5 nM
IC50 (hHDAC8): 500 ± 200 nM
QPlogHERG predicted IC50 values for blockage of HERG K+ channels (HERG K+ channels): -7.83
